Experiment [1] has as its target T1, SIK1 (Homo sapiens, UniProt P57059).
T1 construct: purchased Carna Biosciences 02-131
The experiment can be described thus: ADP-Glo kinase assay, SIK1. In kind it is biochemical. In a few lines: (§1)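 Luminescent ADP-Glo readout of ADP formed. Enzyme-substrate mix with ATP, reaction 120 min at RT, then 40 min ATP depletion and 30 min detection. Controls were 1% DMSO (negative) and 10 μM staurosporine (positive), both final.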

Experiment [2] concerns the target T2, SIK2 (Homo sapiens, UniProt Q9H0K1).
T2 construct: purchased ThermoFisher Scientific PV4792
Briefly: ADP-Glo kinase assay, SIK2. Format: biochemical. In a few lines:
as §1

For experiment [3], the target named is T3, SIK3 (Homo sapiens, UniProt Q9Y2K2).
T3 construct: purchased SignalChem S12-11G-100
Briefly: ADP-Glo kinase assay, SIK3. In kind it is biochemical. In a few lines:
as §1
A general note: In ADP-Glo the light output rises with the ADP produced.

In experiment [4] the test system is LPS triggered IL-10 secretion in monocytes. Briefly: Monocytes assay: LPS-triggered IL-10 (ELISA). The settings on record: LPS-triggered IL-10 induction, median maximal fold change vs LPS only; for maximal fold induction: Homo sapiens, Monocyte, read-out: IL-10 FCmax median. Format: cell-based, human. In a few lines:
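CD14+ monocytes bead-isolated from human PBMCs, pretreated with compound 1 h at 37 °C (0.2% DMSO), then stimulated with LPS 200 ng/mL for 4 h. Supernatant IL-10 measured by chemiluminescent sandwich ELISA; fold change versus LPS only per concentration, reported as maximal fold change (FCmax).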
In general terms: ELISA stands for enzyme-linked immunosorbent assay.

Where [5] appears, read: ADP-Glo, AMARA 45 μM, 5 μM ATP, 120 min, average IC50.

This note sets out measurements from US12391679B2, “Benzamide-substituted bicyclic imidazo- and pyrazolo-fused -pyridine, -pyrimide, and -pyridazine compounds for treatment of inflammatory diseases” (ONCO3R Therapeutics BV, priority 2019, dated 2025).

Read-outs that look alike come from different tables or passages of the source.

T1 sequence (P57059 whole entry): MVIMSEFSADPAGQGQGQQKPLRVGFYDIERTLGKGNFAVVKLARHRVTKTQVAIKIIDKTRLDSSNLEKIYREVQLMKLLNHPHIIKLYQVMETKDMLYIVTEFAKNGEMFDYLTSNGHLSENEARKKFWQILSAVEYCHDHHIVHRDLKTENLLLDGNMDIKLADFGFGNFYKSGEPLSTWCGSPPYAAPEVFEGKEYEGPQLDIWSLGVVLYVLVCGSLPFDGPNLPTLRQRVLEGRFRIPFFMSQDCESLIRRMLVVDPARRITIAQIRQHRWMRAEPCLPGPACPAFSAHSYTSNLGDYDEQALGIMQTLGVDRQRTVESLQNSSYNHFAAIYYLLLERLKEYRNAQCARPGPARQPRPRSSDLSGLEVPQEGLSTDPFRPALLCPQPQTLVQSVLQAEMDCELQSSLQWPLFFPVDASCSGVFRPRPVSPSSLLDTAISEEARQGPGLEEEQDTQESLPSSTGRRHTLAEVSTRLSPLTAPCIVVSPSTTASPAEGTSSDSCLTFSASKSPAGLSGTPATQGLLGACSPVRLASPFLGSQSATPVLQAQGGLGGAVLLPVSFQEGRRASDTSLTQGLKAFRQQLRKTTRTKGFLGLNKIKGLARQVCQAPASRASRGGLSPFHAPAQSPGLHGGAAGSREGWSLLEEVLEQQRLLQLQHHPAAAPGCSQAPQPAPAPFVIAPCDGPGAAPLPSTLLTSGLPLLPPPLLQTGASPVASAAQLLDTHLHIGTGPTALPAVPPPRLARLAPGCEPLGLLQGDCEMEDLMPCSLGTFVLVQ
T2 sequence (Q9H0K1 whole entry): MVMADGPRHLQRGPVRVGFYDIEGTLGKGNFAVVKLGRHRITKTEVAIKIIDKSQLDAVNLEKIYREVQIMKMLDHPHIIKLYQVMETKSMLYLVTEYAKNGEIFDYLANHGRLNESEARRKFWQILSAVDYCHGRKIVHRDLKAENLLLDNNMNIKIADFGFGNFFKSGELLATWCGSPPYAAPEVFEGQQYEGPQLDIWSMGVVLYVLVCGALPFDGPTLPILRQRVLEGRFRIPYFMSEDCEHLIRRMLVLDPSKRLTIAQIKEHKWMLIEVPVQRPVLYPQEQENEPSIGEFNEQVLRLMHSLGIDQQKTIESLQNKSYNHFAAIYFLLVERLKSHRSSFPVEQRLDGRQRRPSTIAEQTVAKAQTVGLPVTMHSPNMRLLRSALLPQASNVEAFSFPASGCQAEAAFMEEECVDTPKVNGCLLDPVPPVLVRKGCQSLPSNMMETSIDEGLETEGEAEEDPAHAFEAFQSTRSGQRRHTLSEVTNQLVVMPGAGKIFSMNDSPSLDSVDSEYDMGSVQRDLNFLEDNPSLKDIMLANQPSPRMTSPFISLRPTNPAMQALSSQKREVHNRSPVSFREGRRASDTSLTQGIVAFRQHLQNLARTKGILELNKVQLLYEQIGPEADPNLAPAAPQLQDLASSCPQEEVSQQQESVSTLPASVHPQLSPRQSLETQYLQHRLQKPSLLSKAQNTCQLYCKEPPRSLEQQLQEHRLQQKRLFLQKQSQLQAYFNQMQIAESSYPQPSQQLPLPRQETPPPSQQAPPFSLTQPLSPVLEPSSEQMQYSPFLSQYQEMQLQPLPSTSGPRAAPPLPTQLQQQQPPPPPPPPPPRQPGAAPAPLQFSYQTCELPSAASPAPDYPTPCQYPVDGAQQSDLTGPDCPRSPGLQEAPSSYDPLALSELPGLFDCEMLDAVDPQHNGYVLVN
T3 sequence (Q9Y2K2 59-365 limits assumed): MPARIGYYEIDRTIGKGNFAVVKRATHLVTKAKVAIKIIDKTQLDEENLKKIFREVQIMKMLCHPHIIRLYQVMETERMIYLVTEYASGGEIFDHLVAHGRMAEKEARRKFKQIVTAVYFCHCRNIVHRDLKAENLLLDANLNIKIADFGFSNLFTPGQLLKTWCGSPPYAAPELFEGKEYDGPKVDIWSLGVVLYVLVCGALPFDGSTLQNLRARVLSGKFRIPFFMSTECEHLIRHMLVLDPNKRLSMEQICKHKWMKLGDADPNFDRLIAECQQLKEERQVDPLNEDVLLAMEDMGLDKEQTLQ

`COc1cc(-c2cnn3cc(C4(C(N)=O)CCC4)ccc23)cc(OC(F)F)c1C(=O)N[C@@H]1C[C@@H]1F` [Cpd 254, 4-[6-(1-carbamoylcyclobutyl)pyrazolo[1,5-a]pyridin-3-yl]-2-(difluoromethoxy)-N-[(1R,2S)-2-fluorocyclopropyl]-6-methoxy-benzamide]: the results for the IC50 in experiment [1], in experiment [2] and in experiment [3] were greater than 500 nM, greater than 500 nM and 0.01 to 10 nM, respectively. Also, in experiment [4], the maximal fold induction was less than 1.5.

On to `COc1cc(-c2cnc3cc(C(C)(C)C#N)ccn23)cc(OC(F)F)c1C(=O)NCC1CC1` [Cpd 39, 4-[7-(1-cyano-1-methyl-ethyl)imidazo[1,2-a]pyridin-3-yl]-N-(cyclopropylmethyl)-2-(difluoromethoxy)-6-methoxy-benzamide], for which the IC50 in experiment [1] was greater than 500 nM; in experiment [2] it was greater than 500 nM; in experiment [3] it was 0.01 to 10 nM. Besides, the maximal fold induction in experiment [4] lay within 1.5 to 4.5.

As to `COc1cc(-c2cnn3cc(C4(O)CCC4)ccc23)cc(OC(F)F)c1C(=O)N[C@@H]1C[C@@H]1F` [Cpd 266, 2-(difluoromethoxy)-N-[(1R,2S)-2-fluorocyclopropyl]-4-[6-(1-hydroxycyclobutyl)pyrazolo[1,5-a]pyridin-3-yl]-6-methoxy-benzamide], the values for the concentration for half-maximal inhibition (IC50) in experiment [1], in experiment [2] and in experiment [3] were greater than 500 nM, 100 to 500 nM and 0.01 to 10 nM, respectively. Besides, in experiment [4], the maximal fold induction is less than 1.5.

For `COc1cc(-c2cnn3cc(C(C)(C)C#N)ccc23)cc(OC)c1C(=O)N[C@@H]1C[C@@H]1F` [Cpd 245, 4-[6-(1-cyano-1-methyl-ethyl)pyrazolo[1,5-a]pyridin-3-yl]-N-[(1R,2S)-2-fluorocyclopropyl]-2,6-dimethoxy-benzamide], the IC50 was greater than 500 nM in experiment [1], greater than 500 nM in experiment [2] and 10 to 100 nM in experiment [3]. The maximal fold induction in experiment [4] is less than 1.5.

With `COc1cc(-c2cnc3cc(C4(F)COC4)ccn23)cc(OC(F)F)c1C(=O)NC1CC1` [Cpd 207, N-cyclopropyl-2-(difluoromethoxy)-4-[7-(3-fluorooxetan-3-yl)imidazo[1,2-a]pyridin-3-yl]-6-methoxy-benzamide], the IC50 in experiment [1] was greater than 500 nM; in experiment [2] it was 100 to 500 nM; in experiment [3] it was 0.01 to 10 nM. The maximal fold induction in experiment [4] was less than 1.5.

Turning to `COc1cc(-c2cnn3cc(C(C)(C)CN4CCOCC4)ccc23)cc(OC(F)F)c1C(=O)N[C@@H]1C[C@@H]1F` [Cpd 269, 2-(difluoromethoxy)-4-[6-(1,1-dimethyl-2-morpholino-ethyl)pyrazolo[1,5-a]pyridin-3-yl]-N-[(1R,2S)-2-fluorocyclopropyl]-6-methoxy-benzamide], the IC50 in experiment [1] was greater than 500 nM; in experiment [2], greater than 500 nM; in experiment [3], 0.01 to 10 nM. In experiment [4], the maximal fold induction is 1.5 to 4.5.

With `COc1cc(-c2cnc3cc(C(O)CC#N)ccn23)cc(OC(F)F)c1C(=O)NC1CC1` (centres unmarked) [Cpd 175, 4-[7-(2-cyano-1-hydroxy-ethyl)imidazo[1,2-a]pyridin-3-yl]-N-cyclopropyl-2-(difluoromethoxy)-6-methoxy-benzamide], the IC50 is greater than 500 nM in experiment [1], 100 to 500 nM in experiment [2] and 10 to 100 nM in experiment [3]. Besides, the maximal fold induction in experiment [4] lay within 1.5 to 4.5.

Consider `COc1cc(-c2cnc3cc(C(C)(C)CO)ccn23)cc(OC(F)F)c1C(=O)NC1CC1` [Cpd 150, N-cyclopropyl-2-(difluoromethoxy)-4-[7-(2-hydroxy-1,1-dimethyl-ethyl)imidazo[1,2-a]pyridin-3-yl]-6-methoxy-benzamide], for which the IC50 was greater than 500 nM in experiment [1], greater than 500 nM in experiment [2] and 0.01 to 10 nM in experiment [3]. Moreover, in experiment [4], the maximal fold induction is less than 1.5.

`COc1cc(-c2cnn3cc(C4(C#N)CCOCC4)ccc23)cc(OC(F)F)c1C(=O)N[C@@H]1C[C@@H]1F` [Cpd 243, 4-[6-(4-cyanotetrahydropyran-4-yl)pyrazolo[1,5-a]pyridin-3-yl]-2-(difluoromethoxy)-N-[(1R,2S)-2-fluorocyclopropyl]-6-methoxy-benzamide]: the IC50 is greater than 500 nM in experiment [1], greater than 500 nM in experiment [2] and 0.01 to 10 nM in experiment [3]. The maximal fold induction in experiment [4] is less than 1.5.

For the molecule `COc1cc(-c2cnn3cc(C(C)(C)CO)ccc23)cc(OC(F)F)c1C(=O)NC1CC1` [Cpd 236, N-cyclopropyl-2-(difluoromethoxy)-4-[6-(2-hydroxy-1,1-dimethyl-ethyl)pyrazolo[1,5-a]pyridin-3-yl]-6-methoxy-benzamide], the IC50 in experiment [1] was greater than 500 nM; in experiment [2] it was greater than 500 nM; in experiment [3] it was 10 to 100 nM. Moreover, in experiment [4], the maximal fold induction was less than 1.5.

`COc1cc(-c2cnn3cc(C(C)(C)CO)ccc23)cc(OC(F)F)c1C(=O)N[C@@H]1C[C@@H]1F` [Cpd 242, 2-(difluoromethoxy)-N-[(1R,2S)-2-fluorocyclopropyl]-4-[6-(2-hydroxy-1,1-dimethyl-ethyl)pyrazolo[1,5-a]pyridin-3-yl]-6-methoxy-benzamide]: the figures for the IC50 in experiment [1], in experiment [2] and in experiment [3] were greater than 500 nM, greater than 500 nM and 0.01 to 10 nM, respectively. Besides, the maximal fold induction in experiment [4] was less than 1.5.

Consider `COc1cc(-c2cnc3cc(C(C)(C)C#N)cnn23)cc(OC(F)F)c1C(=O)N[C@@H]1C[C@@H]1F` [Cpd 228, 4-[7-(1-cyano-1-methyl-ethyl)imidazo[1,2-b]pyridazin-3-yl]-2-(difluoromethoxy)-N-[(1R,2S)-2-fluorocyclopropyl]-6-methoxy-benzamide], for which the IC50 in experiment [1] was greater than 500 nM; in experiment [2], 100 to 500 nM; in experiment [3] it was 0.01 to 10 nM. Further, the maximal fold induction in experiment [4] was less than 1.5.

`COc1cc(-c2cnc3cc(C4(O)CCOCC4)ccn23)cc(OC(F)F)c1C(=O)NC1CC1` [Cpd 170, N-cyclopropyl-2-(difluoromethoxy)-4-[7-(4-hydroxytetrahydropyran-4-yl)imidazo[1,2-a]pyridin-3-yl]-6-methoxy-benzamide]: the IC50 was greater than 500 nM in experiment [1], greater than 500 nM in experiment [2] and 10 to 100 nM in experiment [3]. Also, the maximal fold induction in experiment [4] fell in the range of 1.5 to 4.5.

Consider `COc1cc(-c2cnc3cc(C(C)(O)C(F)(F)F)ccn23)cc(OC(F)F)c1C(=O)NC1CC1` (centres unmarked) [Cpd 129, N-cyclopropyl-2-(difluoromethoxy)-6-methoxy-4-[7-(2,2,2-trifluoro-1-hydroxy-1-methyl-ethyl)imidazo[1,2-a]pyridin-3-yl]benzamide], for which the IC50 in experiment [1] is greater than 500 nM; in experiment [2] it was greater than 500 nM; in experiment [3], 10 to 100 nM. Moreover, in experiment [4], the maximal fold induction is 1.5 to 4.5.

As for `COc1cc(-c2cnc3cc(C(C)(C)O)ccn23)cc(OC(F)F)c1C(=O)NC1CC1` [Cpd 35, N-cyclopropyl-2-(difluoromethoxy)-4-[7-(1-hydroxy-1-methyl-ethyl)imidazo[1,2-a]pyridin-3-yl]-6-methoxy-benzamide], the IC50 in experiment [1] is greater than 500 nM; in experiment [2], greater than 500 nM; in experiment [3], 10 to 100 nM. Besides, the maximal fold induction in experiment [4] fell in the range of 1.5 to 4.5.

On to `COc1cc(-c2cnc3cc(C(C)(C)C#N)ccn23)cc(OC(F)F)c1C(=O)N1CC(C#N)C1` [Cpd 77, 1-[4-[7-(1-cyano-1-methyl-ethyl)imidazo[1,2-a]pyridin-3-yl]-2-(difluoromethoxy)-6-methoxy-benzoyl]azetidine-3-carbonitrile], for which the half-maximal inhibitory concentration (IC50) in experiment [1] is greater than 500 nM; in experiment [2] it was greater than 500 nM; in experiment [3], 0.01 to 10 nM. Besides, the maximal fold induction in experiment [4] is 1.5 to 4.5.

`CCC(C)(O)c1ccn2c(-c3cc(OC)c(C(=O)NC4CC4)c(OC(F)F)c3)cnc2c1` (centres unmarked) [Cpd 137, N-cyclopropyl-2-(difluoromethoxy)-4-[7-(1-hydroxy-1-methyl-propyl)imidazo[1,2-a]pyridin-3-yl]-6-methoxy-benzamide]: the IC50 was greater than 500 nM in experiment [1], greater than 500 nM in experiment [2] and 10 to 100 nM in experiment [3]. The maximal fold induction in experiment [4] is less than 1.5.

Turning to `COCC(C)(C#N)c1ccn2c(-c3cc(OC)c(C(=O)NC4CC4)c(OC(F)F)c3)cnc2c1` (centres unmarked) [Cpd 195, 4-[7-(1-cyano-2-methoxy-1-methyl-ethyl)imidazo[1,2-a]pyridin-3-yl]-N-cyclopropyl-2-(difluoromethoxy)-6-methoxy-benzamide], the IC50 in experiment [1] was greater than 500 nM; in experiment [2], greater than 500 nM; in experiment [3], 10 to 100 nM. Further, the maximal fold induction in experiment [4] is less than 1.5.

As to `COc1cc(-c2cnc3cc([C@@](C)(C#N)CO)ccn23)cc(OC(F)F)c1C(=O)NC1CC1` (single isomer, unassigned) [Cpd 190, 4-[7-(1-cyano-2-hydroxy-1-methyl-ethyl)imidazo[1,2-a]pyridin-3-yl]-N-cyclopropyl-2-(difluoromethoxy)-6-methoxy-benzamide], the IC50 is greater than 500 nM in experiment [1] (setting [5]), greater than 500 nM in experiment [2] (setting [5]) and 10 to 100 nM in experiment [3] (setting [5]). In addition, the “IL-10 FCmax median” value in experiment [4] is given as “+ (+ ≤1.5)”.

Consider `COc1cc(-c2cnn3cc(C(C)(C)C#N)ccc23)cc(OC(F)F)c1C(=O)NC1CC1` [Cpd 208, 4-[6-(1-cyano-1-methyl-ethyl)pyrazolo[1,5-a]pyridin-3-yl]-N-cyclopropyl-2-(difluoromethoxy)-6-methoxy-benzamide], for which the IC50 in experiment [1] was greater than 500 nM; in experiment [2], greater than 500 nM; in experiment [3], 10 to 100 nM. For the same molecule, in experiment [4], the maximal fold induction is less than 1.5.

In general, IC50 refers to the point on the concentration scale where inhibition reaches its midpoint. Read a low IC50 as greater potency in that assay.
